Where “and” joins values, the source holds several entries; their conditions need not be identical. Identical values can stand only once. Marks after values point to notes of the source that are not given here.
Key:
[1] = test system: HQF DNA (human quadruplex forming DNA), d(TTAGGG)4 (DNA, G4) TTAGGGTTAGGGTTAGGGTTAGGG; test: SYBR Green fluorescence melting; conditions: 1 µM ligand, 5 µM DNA, melting buffer not stated
B16F10 cells [2] = test: Flow cytometry Annexin V / PI dot plot; assay type: cell-based, human; conditions: 200 µM L1, 125 µM L2, 50 µM L3, 3 h
Description: (§1) Since MTT and cell culture assays yielded encouraging results with B16F10 cells they were used for confocal and flow cytometry experiments. After 90% confluence, the cells were treated with 200 µM, 125 µM and 50 µM of L1, L2, L3 respectively, for 3 h. 1×10^6 cells were washed with 2× binding buffer and resuspended in 100 µl binding buffer and Annexin-V-FITC (1.0 µg). The cells were then incubated at room temperature for 10 min, followed by the addition of 400 µl of binding buffer containing 1 µl of Propidium Iodide (PI). Stained cells were analyzed using FACS Calibur Flow Cytometer from B.D. Biosceinces (USA). Annexin-V-FITC and PI labelled cells were excited using 488 nm solid-state laser and fluorescence emission intensity was captured using 530/30 and 585/42 band pass filters respectively.

MCF-7 = test: Cell count assay (trypan blue); assay type: cell-based, human; conditions: for Number of viable cells after 24 h of ligand treatment: MCF-7, 24 h; for Number of viable cells after 48 h of ligand treatment: MCF-7, 48 h;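 for Number of viable cells after 48 h of ligand treatment: each ligand tested at its own IC50 concentration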
Description: (§2) Normal and tumor cell lines were seeded at 20000–40000 cells/cm^2 with 0.2 mL/cm^2 media and incubated for 48 h at 37°C, 6% CO2, 95% relative humidity. […] After 24 h and 48 h of incubation, cells were washed with 300 µl PBS or 0.02% EDTA, trypsinized, followed by harvesting at 37°C. 200 µl cell suspension was transferred into 1.5 ml microcentrifuge tube. To the cell suspension, 300 µl PBS followed by 500 µl of 0.4% trypan blue solution was added. To get the homogenised solution, the microcentrifuge tube was gently tapped for 5 min, 20 µl of cell suspension was loaded in to a chamber of the haemocytometer.

A549 = test: Cell count assay (trypan blue); assay type: cell-based, human; conditions: for Number of viable cells after 24 h of ligand treatment: A549, 24 h; for Number of viable cells after 48 h of ligand treatment: A549, 48 h;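 for Number of viable cells after 24 h of ligand treatment: each ligand tested at its own IC50 concentration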
Description: as §2

B16F10 = test: Cell count assay (trypan blue); assay type: cell-based, human; conditions: for Number of viable cells after 24 h of ligand treatment: B16F10, 24 h; for Number of viable cells after 48 h of ligand treatment: B16F10, 48 h
Description: as §2

B16F10 melanoma cells = test: Preclinical study: survival of tumor-induced mice; assay type: in vivo, C57BL6/J mice; conditions: 200 µM L1, 125 µM L2, 50 µM L3 on alternate days for 2 weeks
Description: C57BL6/J mice were used from the animal house facility located at CCMB (Hyderabad, India). All animal experimental studies were carried out in strict accordance with the recommendations in the guide for the care and use of laboratory animals of Centre for Cellular and Molecular Biology (CCMB). All the animal experimental protocols were approved by the Institutional Animal Ethical Committee (IAEC) of Centre for Cellular and Molecular Biology (CCMB with Permit number: CPCSEA 20/1999, Ministry of Environment and Forest, Government of India).The protocol was approved by the Institutional Animal Ethical Committee (IAEC) of CCMB (Protocol number: IAEC 16/2012). All the surgery was performed under sodium pentobarbital anaesthesia, and all efforts were made to minimize suffering. C57BL6/J mice, 6–8 weeks old, were subcutaneously injected with 2×10^5 B16F10 melanoma cells, in the […] region. After the tumor attained a size of 500–1000 mm^3 (≈9 days following cancer cell implantation), mice were grouped and treated as follows.
Group (i) was treated with vehicle control (4 mice), group (ii) with 200 µM of L1 (4 mice), group (iii) with 125 µM of L2 (4 mice) and group (iv) with 50 µM of L3 (4 mice). These experiments were repeated thrice and mean values were considered. Size of tumor was measured every day at a fixed time. The tumor sizes were calculated using the formula (0.5 ab^2), where ‘a’ was the largest dimension and ‘b’ was the smallest dimension of the tumor. The experiment was terminated when the average tumor volume of the control/treated group was 10000–12000 mm^3.

B16F10 cells [3] = test: Flow cytometry cell cycle analysis (PI); assay type: cell-based, human; conditions: for cells in G0/G1 phase / cells in G2/M phase / cells in S phase / cells in Sub G1 phase: 200 µM L1, 125 µM L2, 50 µM L3, 3 h
Description: as §1

HQF DNA [d(T2AG3)4] = test: SYBR Green melting study with HQF DNA; assay type: binding, human; conditions: for Tm of HQF DNA with ligand: 5 µM HQF DNA, 1 µM ligand, HQF DNA alone 27°C; for Tm: melting temperature of HQF DNA (5 µM) in presence of 1 µM ligand
Description: (§3) When quadruplex DNA melts to form ssDNA structure, SG fluorescence intensity gradually reduces as SG has no binding to ssDNA. Each time, 5 µM of HQF DNA [d(T2AG3)4)], 5 µM of dsDNA (prepared by mixing equal concentration of poly-dA-dT and poly-dT-dA), 5 µM ssDNA ( poly dT alone) and 1 µM of each ligand was incubated at 4°C for 16 h, and used for melting studies. […] Affinity, stoichiometry and thermodynamic parameters for quadruplex-ligand complex were studied with 60 µM of ligand and 10 µM of HQF DNA using Microcal VP-ITC (Northampton, MA, USA). Ligand addition to G-quadruplex DNA was made every 180 seconds. Titration experiments were performed thrice and blank correction was made each time to minimize error.

HQF DNA d(TTAGGG)4 = test: Isothermal titration calorimetry; assay type: binding, human; conditions: ITC; for K1 x 10^-7 / K2 x 10^-5: two-sites model, 100 mM KBPES pH 7.0; for K1 x 10^-7: mode-1, 25°C; for K2 x 10^-5: mode-2, 25°C; for Kd: quadruplex DNA, read-out: Kd, higher affinity interaction (mode-1)
Description: as §3
On integrating the heats produced per injection, with respect to time and conversion to per mole basis, the binding isotherm (Figure 8A) corresponding to each ligand was obtained. […] After making blank correction, the heat data was fitted with “two-independent sites” model and analyzed using Origin 7.1 to calculate thermodynamic parameters.

Row | Compound | Cells Alive (B16F10 cells [2]) [%] | Early apoptotic (B16F10 cells [2]) [%] | Late apoptotic (B16F10 cells [2]) [%] | Necrotic (B16F10 cells [2]) [%] | Total apoptotic cells (B16F10 cells [2]) [%] | Number of viable cells after 24 h of ligand treatment (MCF-7) | Number of viable cells after 48 h of ligand treatment (MCF-7) | Number of viable cells after 24 h of ligand treatment (A549) | Number of viable cells after 48 h of ligand treatment (A549) | Number of viable cells after 24 h of ligand treatment (B16F10) | Number of viable cells after 48 h of ligand treatment (B16F10) | Number of days survived (B16F10 melanoma cells) | survival period of treated mice (B16F10 melanoma cells) | cells in G0/G1 phase (B16F10 cells [3]) | cells in G2/M phase (B16F10 cells [3]) | cells in S phase (B16F10 cells [3]) | cells in Sub G1 phase (B16F10 cells [3]) | Tm of HQF DNA with ligand (HQF DNA [d(T2AG3)4]) [°C] | Tm (HQF DNA [d(T2AG3)4]) | K2 x 10^-5 (HQF DNA d(TTAGGG)4) | also measured
1 | Cc1cn([C@H]2C[C@H](N=[N+]=[N-])[C@@H](CO)O2)c(=O)[nH]c1=O [Ligand L1, 1-(4-azido 5-(hydroxylmethyl)tetrahydrofuran-2-yl)-5-methyl pyrimidi-ne-2,4(1H,3H)-dione, reference compound] | 68.78 | 02.61 | 12.05 | 16.56 | 14.66 | + (Viable cells in the range of 80%–90%) | ++ (Viable cells in the range of 50%–60%) | + (Viable cells in the range of 80%–90%) | ++ (Viable cells in the range of 50%–60%) | ++ (Viable cells in the range of 50%–60%) | +++ (Viable cells which are equal or less than 30%) | 25 (±5) days | ~4 weeks | 26.94% | 5.58% and 05.58% | 06.38% | 61.10% | 28 | 28 ^o C | 2.14 (± 0.2) | ΔTm ([1]; derived from two Tm (28 and 27 °C)): 1 °C; K1 x 10^-7 (HQF DNA d(TTAGGG)4): 0.72 (± 0.3)
2 | Cc1cn([C@H]2C[C@H](n3cc(-c4ccccc4)nn3)[C@@H](CO)O2)c(=O)[nH]c1=O [Ligand L2] | 22.88 | 04.82 | 19.07 | 53.23 | 23.89 | + (Viable cells in the range of 80%–90%) | ++ (Viable cells in the range of 50%–60%) | ++/++ (Viable cells in the range of 50%–60%) | ++/++ (Viable cells in the range of 50%–60%) | ++ (Viable cells in the range of 50%–60%) | +++ (Viable cells which are equal or less than 30%) | 31 (±4) days | ~5 weeks | 07.78% | 1.93% and 01.93% | 8.77% and 08.77% | 81.5% and 81.52% | 42 | 42 ^o C | 2.61 (± 0.3) | ΔTm ([1]; derived from two Tm (42 and 27 °C)): 15 °C; Kd (HQF DNA d(TTAGGG)4): ~100 nM; K1 x 10^-7 (HQF DNA d(TTAGGG)4): 1.35 (± 0.1)
3 | Cc1cn([C@H]2C[C@H](n3cc(-c4ccc(Cl)cc4)nn3)[C@@H](CO)O2)c(=O)[nH]c1=O [Ligand L3, 1-(4-(4-(4-chlorophenly)-1H-1,2,3-triazole-1-yl)-5-(hydroxymethyl)tetrahydrofuran-2-yl)-5-methylpyrimidine-2,3(1H,3H)-dione] | 17.79 | 20.99 | 60.26 | 00.96 | 81.25 | ++/++ (Viable cells in the range of 50%–60%) | ++/++ (Viable cells in the range of 50%–60%) | ++ (Viable cells in the range of 50%–60%) | +++ (Viable cells which are equal or less than 30%) | ++ (Viable cells in the range of 50%–60%) | +++ (Viable cells which are equal or less than 30%) | 40 (±6) days | about 6 weeks | 4.46% and 04.46% | 0.91% and 00.91% | 5.36% and 05.36% | 89.27% | 52 | 52 ^o C | 2.82 (±0.5) | ΔTm ([1]; derived from two Tm (52 and 27 °C)): 25 °C; subG1 cell population enhanced compared to other nucleoside ligands (B16F10 cells [3]; L3 versus L1 and L2): 10–30%; Kd (HQF DNA d(TTAGGG)4): ~100 nM

Reference: paper PMC3747139 (PLoS ONE, 2013)
